Patent US7030081B2 (S.I.S.S.A.- Scuola Internazionale Superiore di Studi …, priority 2000, dated 2006)
“And” between values parts separate entries of the source, which are not always exact repeats. Identical values can stand only once. “Also recorded” adds a separate entry of the source. No end group written: not given here.

Assays:
[1] = target: T1, muscle-type nicotinic receptors (Mus musculus, UniProt P02716+P04756+P09690); test: Patch-clamp recording of nicotinic currents in cultured muscle cells (myotubes, I28); format: cell-based
T1 construct: nicotinic currents recorded from cultured muscle cells (myotubes, I28); endogenous in cells; host or cells: I28 myotubes
Experimental: A set of experiments was carried out using […] which represent myotubes and therefore contain muscle-type nicotinic receptors. For this purpose the cells were prepared according to method by Irintchev et al. (1997).
(§1) Dishes containing cultured cells (used from 0 to 3 days after their preparation) were placed on an inverted Nikon DIAPHOT™ microscope and continuously superfused (5–10 ml/min) with control saline containing (mM): NaCl 135, KCl 5, MgCl2 1, CaCl2 2, glucose 15, HEPES 10 (pH 7.4 with addition of […]; 285 mOsm osmolarity). The patch pipettes, obtained from glass capillary tubes (1.5 mm o.d.) had 5–6 MΩ resistance when filled with intracellular solution containing: (mM) CsCl 120; HEPES 20; MgCl2 1; Mg2ATP3 3, BAPTA 10 (240 mOsm). The pH of the intracellular solution was adjusted to 7.2 with CsOH. Unless otherwise specified, all recordings were carried out at −70 mV membrane potential. After obtaining whole-cell configuration (Hamill et al. 1981), each cell was stabilized for […] period, after which membrane ionic currents, mediated by nAChR activation, were recorded, filtered at 1 kHz, and stored in a PC for subsequent analysis with the pCLAMP 6.04 program (Axon Instruments Inc., Foster City, Calif.).
To this end we studied whether this peptide could affect nicotinic currents recorded from cultured muscle cells (myotubes, I28). These cells were kept at −60 mV potential by the patch electrode.

[2] = system: nAChRs of rat chromaffin cells; test: Patch-clamp recording of nicotine-induced currents in cultured rat chromaffin cells; format: cell-based; details: for depression (reduction) of the response to nicotine: 5 μM physostigmine, 0.1 mM nicotine; for effect on nicotine dose response curve: 1 μM peptide or 0.5 μM physostigmine
Experimental: Cultures of rat chromaffin cells were prepared according to the Brandt method (Brandt et al., 1976, Giniatullin et al., 1999, Khirough et al., 1997, 1998). 25–35 day old rats were anaesthetized by increasing CO2 levels and then their adrenal glands were removed. The medullary part was separated from the cortical portion of the gland in buffer solution (pH 7.2) containing (mM): NaCl 137, KCl 3, Na2HPO4 0.7, HEPES 25, glucose 10 and 350 U ml^−1 of penicillin and streptomycin.
Cells were successively dissociated from fragments of medullary tissue at 37° C. over about 60 min, by passing them through a Pasteur pipette at 15 min intervals, and by enzymatic treatment with collagenase A and DNAse I (0.5 U ml^−1 and 10 μgml^−1). The cell containing suspension was then centrifuged at 700 rpm for 5 min and washed twice in HEPES buffered medium. The cells, after re-suspension in DMEM culture medium (Dulbecco's modified Eagle's medium) with addition of 10% FCS (calf fetal serum), were plated on poly-lysine (5 mg/ml)-pretreated Petri dishes and cultured at 37° C. for 1–2 days in 5% CO2 containing atmosphere.
as §1
nAChR agonists were administered to single cells by a pressure system from a micropipette containing a relatively concentrated solution and placed at […] distance from the recorded cell. […] This method allows very rapid administration of a chemical substance with a few ms latency to observe a cell response. For application of antagonists, test compounds and control solution we used a rapid superfusion system (Bio-logic, France) consisting of an array of glass capillary tubes (0.8 mm o.d.) which, through rapid rotation, generate solution flow onto the treated cell. In this case the exchange time between two solutions is about 50 ms.

[3] = system: nAChRs; details: Giniatullin et al.; cited from earlier work
[4] = 1 μM peptide, nicotine 0.1 mM, 20 ms pulse

T1 sequence (P04756 21-457): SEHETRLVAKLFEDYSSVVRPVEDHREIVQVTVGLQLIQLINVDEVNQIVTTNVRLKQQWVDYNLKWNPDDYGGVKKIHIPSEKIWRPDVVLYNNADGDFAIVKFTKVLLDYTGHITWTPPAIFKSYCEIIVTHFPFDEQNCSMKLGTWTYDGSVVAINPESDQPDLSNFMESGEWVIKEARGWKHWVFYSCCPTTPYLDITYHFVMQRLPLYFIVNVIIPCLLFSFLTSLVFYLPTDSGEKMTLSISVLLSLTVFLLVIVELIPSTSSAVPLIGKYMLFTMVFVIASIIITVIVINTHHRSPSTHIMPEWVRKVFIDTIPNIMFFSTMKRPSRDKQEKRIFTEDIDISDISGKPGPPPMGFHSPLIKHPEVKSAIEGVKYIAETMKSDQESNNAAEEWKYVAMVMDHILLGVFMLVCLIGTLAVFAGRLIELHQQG
T1 sequence (P09690 24-501): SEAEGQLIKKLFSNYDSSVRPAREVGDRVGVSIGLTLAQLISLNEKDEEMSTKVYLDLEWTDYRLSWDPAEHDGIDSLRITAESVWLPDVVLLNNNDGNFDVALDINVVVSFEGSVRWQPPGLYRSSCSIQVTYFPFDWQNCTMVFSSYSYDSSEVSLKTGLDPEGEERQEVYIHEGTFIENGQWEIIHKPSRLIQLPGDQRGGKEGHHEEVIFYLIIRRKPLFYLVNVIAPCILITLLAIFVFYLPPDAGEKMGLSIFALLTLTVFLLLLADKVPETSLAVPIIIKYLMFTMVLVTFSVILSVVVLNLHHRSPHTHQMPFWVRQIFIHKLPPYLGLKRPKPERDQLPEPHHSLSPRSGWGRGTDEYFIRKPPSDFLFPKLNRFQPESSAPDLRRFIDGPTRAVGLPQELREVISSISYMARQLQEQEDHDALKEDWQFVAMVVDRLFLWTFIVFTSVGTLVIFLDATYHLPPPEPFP
T1 sequence (P02716 25-520): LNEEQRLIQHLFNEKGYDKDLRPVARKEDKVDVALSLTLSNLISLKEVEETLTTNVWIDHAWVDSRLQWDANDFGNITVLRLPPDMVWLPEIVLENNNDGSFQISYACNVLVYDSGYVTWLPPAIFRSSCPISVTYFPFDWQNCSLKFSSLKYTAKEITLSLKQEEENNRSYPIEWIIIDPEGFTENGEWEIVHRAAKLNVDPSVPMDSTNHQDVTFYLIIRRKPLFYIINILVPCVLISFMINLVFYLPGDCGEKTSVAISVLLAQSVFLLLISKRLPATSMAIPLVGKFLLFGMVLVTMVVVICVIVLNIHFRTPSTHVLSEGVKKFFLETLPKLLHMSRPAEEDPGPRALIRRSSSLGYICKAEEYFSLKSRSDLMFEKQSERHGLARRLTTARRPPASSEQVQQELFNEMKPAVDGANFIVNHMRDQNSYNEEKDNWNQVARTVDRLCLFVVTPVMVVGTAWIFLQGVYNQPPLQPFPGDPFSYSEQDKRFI
T1 sequence (P04760 23-519 partner): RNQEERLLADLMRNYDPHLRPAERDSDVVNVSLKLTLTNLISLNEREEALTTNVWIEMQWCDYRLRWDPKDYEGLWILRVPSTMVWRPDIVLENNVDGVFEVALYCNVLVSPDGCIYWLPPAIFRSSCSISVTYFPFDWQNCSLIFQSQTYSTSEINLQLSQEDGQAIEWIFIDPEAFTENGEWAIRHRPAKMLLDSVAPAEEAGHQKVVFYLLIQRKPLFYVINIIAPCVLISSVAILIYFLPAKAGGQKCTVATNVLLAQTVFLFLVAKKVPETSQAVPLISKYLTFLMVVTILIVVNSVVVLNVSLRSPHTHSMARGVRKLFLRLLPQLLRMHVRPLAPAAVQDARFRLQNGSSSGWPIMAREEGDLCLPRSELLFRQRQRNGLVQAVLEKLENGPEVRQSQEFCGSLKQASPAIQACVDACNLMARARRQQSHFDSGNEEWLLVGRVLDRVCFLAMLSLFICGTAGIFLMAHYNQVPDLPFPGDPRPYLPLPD

For `CN1CCCC1c1cccnc1` (stereo not drawn) [Nicotine, nicotine, reference compound], the EC50 [1] was 100 µM.

For `CNC(=O)Oc1ccc2c(c1)[C@]1(C)CCN(C)[C@@H]1N2C` [physostigmine, reference compound], the “depression (reduction) of the response to nicotine” value ([2]; 20 ms) was 48±5% and the “depression (reduction) of the response to nicotine” value ([2]; 20 ms, listed as phystigmine) was 77±1%.

For SCNTAT [CGRP 1-6], the “potentiation of nicotine current at threshold” value ([2]; 0.1 μM peptide, nicotine 20 ms, 0.1 mM) was 105±7%, the “nicotine currents (fraction of control) on concurrent application of CGRP 1-6 and CGRP 1-7” value ([2]; 1 μM concentration of both) was 99±4% and the “application time after which enhancement is observed” value ([2]; 1 μM peptide) was ≤ 5 s. The “wash time for reversal of enhancement” value ([2]; 1 μM peptide) was “about 1 min”, the “effect on nicotine dose response curve” value [2] was “shifted to the left in a parallel fashion without modification of the maximum response” and the “effect on maximal currents (saturating nicotine pulse)” value ([2]; 1 μM peptide, 200 ms nicotine pulse) was “absent; also recorded: not modified”. The “enhancement of nicotine induced currents” value [2, 4] was 31% and 31±7% and 21±4%, the “maximum value of potentiation of nicotine current” value ([2]; 50 μM peptide, nicotine 20 ms, 0.1 mM) was 156±6% and the “enhancement with combined application of CGRP 1-6 and physostigmine” value ([2]; CGRP 1-6 1 μM + physostigmine 0.5 μM) was 37±6%. The “washout time for current to return to the initial value” ([2]; FIG. 3C) was 45 to 60 s, the “enhancement with cytisine as agonist” value ([2]; cytisine 20 ms, 0.1 mM) was “enhancing effect was exerted also when nAChRs were activated by cytisine” and the “CGRP 1-6 enhancing action threshold value” ([2]; nicotine 0.1 mM, 20 ms, 0.05–100 μM tested) was 0.1 µM. The “nicotine currents as % of the control with physostigmine plus CGRP 1-6” value ([2]; physostigmine 5 μM + CGRP 1-6 1 μM) was 79±1%, the “direct action in the absence of agonist” value ([2]; resting membrane conductance, baseline current) was “not associated with any direct action” and the “dependence of enhancing action on membrane potential” value ([2]; −40, −70 and −100 mV) was “independent from the membrane potential”. For the same molecule, the “effect on muscle-type nicotinic receptor responses (in words)” value [1] was “did not modify the muscle-type nicotinic receptor responses” and the “amplitude of nicotine responses as % of the controls” value ([1]; 1 μM CGRP 1-6 pre-applied for 2 minutes, nicotine 100 μM, −60 mV) was 101±2%.

With “SCNTATA [CGRP 1-7A, Cys7 replaced with Ala]” the “wash time for reversal of enhancement” value ([2]; 1 μM peptide) was “about 1 min”, the “effect on nicotine dose response curve” value [2] was “significantly shifted to left without increase in the maximum response” and the “enhancement of nicotine induced currents” value [2, 4] was 17±4%. The “enhancement of nicotine induced currents” value ([2]; 1 μM peptide, nicotine 0.1 mM, 20 ms pulse, listed as 1-7A) was 18% and the “enhancement of nicotine induced currents” value ([2]; 1 μM peptide, nicotine 0.1 mM, 20 ms pulse, listed as CGRP 1-7 A) was “about 18%”.

For “SCNTATC (cysteine pairing not given here) [CGRP 1-7, reference compound]”, the “inhibition of nicotine currents” value ([2]; 1 μM peptide) is listed as 42% and the “action on nAChRs reported earlier (in words)” value [3] is listed as “rapidly developing, competitive antagonism readily reversible on wash”.

With “Ser-Cys-Asn-Thr (SCNT; listed as Homo sapiens) [CGRP 1-4]” the “enhancement of nicotine induced currents” value [2, 4] was 8±1% and the “action of fragment on nicotinic currents (in words)” value ([2]; FIG. 5B) was “modest enhancing effect”.

With “Ser-Cys-Asn-Thr-Ala (SCNTA; listed as Homo sapiens) [CGRP 1-5]” the “enhancement of nicotine induced currents” value ([2]; 10 μM peptide) was 26±4%.
